In ChEMBL document CHEMBL1201862, “PubChem BioAssay data set” (2004):
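Cultured in 96-well plates, cells were exposed to test compound for 48 hours across five concentrations. GI50 marks 50% less growth.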 The source made the active and inactive calls. No stated cut-off is given here; in the data, active = GI50 up to about 1.1 µM and inactive = higher.

Assays:
Experiment in all cases: NCI-60 cell line screen, 48 h
786-0 = system: 786-0
A498 = system: A498
A549 = system: A549
ACHN = system: ACHN
BT-549 = system: BT-549
CAKI-1 = system: CAKI-1
CCRF-CEM = system: CCRF-CEM
COLO 205 = system: COLO 205
EKVX = system: EKVX
HCC 2998 = system: HCC 2998
HCT-116 = system: HCT-116
HCT-15 = system: HCT-15
HL-60 = system: HL-60
HOP-62 = system: HOP-62
HOP-92 = system: HOP-92
HT-29 = system: HT-29
IGROV-1 = system: IGROV-1
K562 = system: K562
KM12 = system: KM12
LOX IMVI = system: LOX IMVI
M14 = system: M14
MCF7 = system: MCF7
MDA-MB-231 = system: MDA-MB-231
MDA-MB-435 = system: MDA-MB-435
MDA-N = system: MDA-N
MOLT-4 = system: MOLT-4
Malme-3M = system: Malme-3M
NCI-H226 = system: NCI-H226
NCI-H23 = system: NCI-H23
NCI-H522 = system: NCI-H522
NCI/ADR-RES = system: NCI/ADR-RES
OVCAR-3 = system: OVCAR-3
OVCAR-4 = system: OVCAR-4
OVCAR-5 = system: OVCAR-5
OVCAR-8 = system: OVCAR-8
PC-3 = system: PC-3
RPMI-8226 = system: RPMI-8226
SF-295 = system: SF-295
SF-539 = system: SF-539
SK-MEL-28 = system: SK-MEL-28
SK-MEL-2 = system: SK-MEL-2
SK-MEL-5 = system: SK-MEL-5
SK-OV-3 = system: SK-OV-3
SN12C = system: SN12C
SNB-19 = system: SNB-19
SNB-75 = system: SNB-75
SR = system: SR
SW-620 = system: SW-620
T47D = system: T47D
TK-10 = system: TK-10
U-251 = system: U-251
UACC-257 = system: UACC-257
UACC-62 = system: UACC-62
UO-31 = system: UO-31
DU-145 = system: DU-145
Hs-578T = system: Hs-578T
NCI-H460 = system: NCI-H460
SF-268 = system: SF-268

For `NCCSc1nc2ccccc2c(=O)n1-c1ccccc1`, the GI50 (786-0) was 51.1 µM (inactive), the GI50 (A498) was 26.5 µM (inactive) and the GI50 (A549) was 43.7 µM (inactive). For the same compound, the GI50 (ACHN) was 21.6 µM (inactive), the GI50 (BT-549) was 27.2 µM (inactive) and the GI50 (CAKI-1) was 90.6 µM (inactive). The GI50 (CCRF-CEM) was 45.7 µM (inactive), the GI50 (COLO 205) was > 100 µM (inactive) and the GI50 (EKVX) was > 100 µM (inactive). For the same compound, the GI50 (HCC 2998) was 44.3 µM (inactive), the GI50 (HCT-116) was 60.3 µM (inactive) and the GI50 (HCT-15) was 43.8 µM. The GI50 (HL-60) was 32.8 µM (inactive), the GI50 (HOP-62) was 61.7 µM (inactive) and the GI50 (HOP-92) was 10.3 µM (inactive). The GI50 (HT-29) was 49.7 µM (inactive), the GI50 (IGROV-1) was 44.7 µM (inactive) and the GI50 (K562) was 39.9 µM (inactive). For the same compound, the GI50 (KM12) was 41.7 µM (inactive), the GI50 (LOX IMVI) was 71.9 µM (inactive) and the GI50 (M14) was 53.8 µM (inactive). The GI50 (MCF7) was 90.8 µM (inactive), the GI50 (MDA-MB-231) was > 100 µM (inactive) and the GI50 (MDA-MB-435) was 23.9 µM (inactive). The GI50 (MDA-N) was 42.9 µM (inactive), the GI50 (MOLT-4) was > 10 µM (inactive) and the GI50 (Malme-3M) was 30.2 µM (inactive). The GI50 (NCI-H226) was > 100 µM (inactive), the GI50 (NCI-H23) was 50.2 µM (inactive) and the GI50 (NCI-H522) was 30.8 µM (inactive). The GI50 (NCI/ADR-RES) was 68.9 µM (inactive), the GI50 (OVCAR-3) was > 100 µM (inactive) and the GI50 (OVCAR-4) was 52.8 µM (inactive). The GI50 (OVCAR-5) was > 100 µM (inactive), the GI50 (OVCAR-8) was 56.6 µM (inactive) and the GI50 (PC-3) was 27.9 µM (inactive). The GI50 (RPMI-8226) was > 10 µM (inactive), the GI50 (SF-295) was 28.2 µM (inactive) and the GI50 (SF-539) was 32.7 µM (inactive). For the same compound, the GI50 (SK-MEL-28) was > 100 µM (inactive), the GI50 (SK-MEL-2) was 67 µM (inactive) and the GI50 (SK-MEL-5) was 74.3 µM (inactive). The GI50 (SK-OV-3) was > 100 µM (inactive), the GI50 (SN12C) was > 100 µM (inactive) and the GI50 (SNB-19) was 0.236 µM (active). For the same compound, the GI50 (SNB-75) was 33.9 µM (inactive), the GI50 (SR) was 11.9 µM (inactive) and the GI50 (SW-620) was 45.5 µM (inactive). The GI50 (T47D) was 32.6 µM (inactive), the GI50 (TK-10) was 45.5 µM (inactive) and the GI50 (U-251) was 34.4 µM (inactive). For the same compound, the GI50 (UACC-257) was 77.1 µM (inactive), the GI50 (UACC-62) was 26.4 µM (inactive) and the GI50 (UO-31) was 24.4 µM (inactive).

`Cc1ccc(Cl)c2c(=O)c3ccc([N+](=O)[O-])cc3sc12` was tested, and the GI50 (786-0) was > 100 µM (inactive), the GI50 (A549) was > 100 µM (inactive) and the GI50 (ACHN) was > 100 µM (inactive). For the same compound, the GI50 (BT-549) was > 100 µM (inactive), the GI50 (CAKI-1) was > 100 µM (inactive) and the GI50 (COLO 205) was > 100 µM (inactive). The GI50 (DU-145) was > 100 µM (inactive), the GI50 (HCT-116) was > 100 µM (inactive) and the GI50 (HCT-15) was > 100 µM. For the same compound, the GI50 (HOP-62) was 79.8 µM (inactive), the GI50 (K562) was > 100 µM (inactive) and the GI50 (KM12) was > 100 µM (inactive). For the same compound, the GI50 (MCF7) was > 100 µM (inactive), the GI50 (MDA-N) was > 100 µM (inactive) and the GI50 (MOLT-4) was > 100 µM (inactive). The GI50 (NCI-H23) was > 100 µM (inactive), the GI50 (OVCAR-3) was > 100 µM (inactive) and the GI50 (OVCAR-5) was > 100 µM (inactive). For the same compound, the GI50 (OVCAR-8) was > 100 µM (inactive), the GI50 (PC-3) was > 100 µM (inactive) and the GI50 (RPMI-8226) was > 100 µM (inactive). For the same compound, the GI50 (SF-295) was 82.2 µM (inactive), the GI50 (SK-MEL-2) was > 100 µM (inactive) and the GI50 (SK-MEL-5) was > 100 µM (inactive). For the same compound, the GI50 (SNB-19) was > 100 µM (inactive), the GI50 (UACC-257) was > 100 µM (inactive) and the GI50 (UACC-62) was > 100 µM (inactive). For the same compound, the GI50 (UO-31) was > 100 µM (inactive).

With `CC(C)=C[C@@H]1C[C@H](C)[C@H]2CC[C@H](C)[C@H]3C(=O)C(O)=C(C)C(=O)[C@]123` the GI50 (786-0) was > 100 µM (inactive), the GI50 (A498) was > 100 µM (inactive) and the GI50 (A549) was 57.8 µM (inactive). The GI50 (ACHN) was > 100 µM (inactive), the GI50 (BT-549) was > 100 µM (inactive) and the GI50 (CAKI-1) was > 100 µM (inactive). The GI50 (CCRF-CEM) was 99.1 µM (inactive), the GI50 (COLO 205) was > 100 µM (inactive) and the GI50 (DU-145) was > 100 µM (inactive). For the same compound, the GI50 (EKVX) was > 100 µM (inactive), the GI50 (HCC 2998) was > 100 µM (inactive) and the GI50 (HCT-116) was 88.5 µM (inactive). The GI50 (HCT-15) was > 100 µM, the GI50 (HL-60) was > 100 µM (inactive) and the GI50 (HOP-62) was > 100 µM (inactive). For the same compound, the GI50 (HOP-92) was 42.7 µM (inactive), the GI50 (HT-29) was > 100 µM (inactive) and the GI50 (Hs-578T) was > 100 µM (inactive). For the same compound, the GI50 (IGROV-1) was > 100 µM (inactive), the GI50 (K562) was > 100 µM (inactive) and the GI50 (KM12) was > 100 µM (inactive). The GI50 (LOX IMVI) was > 100 µM (inactive), the GI50 (M14) was > 100 µM (inactive) and the GI50 (MCF7) was > 100 µM (inactive). For the same compound, the GI50 (MDA-MB-231) was > 100 µM (inactive), the GI50 (MDA-MB-435) was > 100 µM (inactive) and the GI50 (MDA-N) was > 100 µM (inactive). The GI50 (MOLT-4) was > 100 µM (inactive), the GI50 (Malme-3M) was > 100 µM (inactive) and the GI50 (NCI-H226) was 87.3 µM (inactive). The GI50 (NCI-H23) was > 100 µM (inactive), the GI50 (NCI-H460) was > 100 µM (inactive) and the GI50 (NCI-H522) was 48.1 µM (inactive). For the same compound, the GI50 (NCI/ADR-RES) was > 100 µM (inactive), the GI50 (OVCAR-3) was > 100 µM (inactive) and the GI50 (OVCAR-4) was 90.8 µM (inactive). The GI50 (OVCAR-5) was > 100 µM (inactive), the GI50 (OVCAR-8) was > 100 µM (inactive) and the GI50 (PC-3) was 27.4 µM (inactive). The GI50 (RPMI-8226) was > 100 µM (inactive), the GI50 (SF-268) was > 100 µM (inactive) and the GI50 (SF-295) was > 100 µM (inactive). For the same compound, the GI50 (SF-539) was > 100 µM (inactive), the GI50 (SK-MEL-28) was > 100 µM (inactive) and the GI50 (SK-MEL-5) was > 100 µM (inactive). For the same compound, the GI50 (SK-OV-3) was > 100 µM (inactive), the GI50 (SN12C) was > 100 µM (inactive) and the GI50 (SNB-19) was > 100 µM (inactive). For the same compound, the GI50 (SNB-75) was > 100 µM (inactive), the GI50 (SW-620) was > 100 µM (inactive) and the GI50 (TK-10) was > 100 µM (inactive). The GI50 (U-251) was > 100 µM (inactive), the GI50 (UACC-257) was > 100 µM (inactive) and the GI50 (UACC-62) was > 100 µM (inactive). The GI50 (UO-31) was > 100 µM (inactive).
